Columns and labels:
[1] = tested on: BxPC3 human pancreatic cancer cells; assay: Pancreatic cancer BxPC3 subcutaneous model, tumor volume; format: in vivo, nude mice; conditions: day 70; gemcitabine 100 mg/kg i.p. q3 day; Compounds A, B 5 mg/kg s.c. bid, 10 mg/kg from day 56
Procedure: A study was conducted to evaluate the anti-cancer activity of Compound A and Compound B in a mouse model of pancreatic cancer. Human pancreatic cancer cells, BxPC3, were implanted subcutaneously (1×10^6 cells in 100 μL Matrigel) in 6 week old female nude mice (5 mice per group). Treatment began on day 7 after implantation, with either gemcitabine (100 mg/kg i.p. q3 day), Compound A (5 mg/kg s.c. bid), or Compound B (5 mg/kg s.c. bid). Tumor volume was measured with calipers each week. On day 56 the dose of both Compound A and B were increased to 10 mg/kg s.c. bid. At day 70 animals were sacrificed and tumors resected, fixed, and stored for further testing.

P-selectin = assay: P-selectin-mediated HL-60 cell binding to immobilized P-selectin/Fc chimera; format: cell-based; conditions: HL-60 cells, best-fit values
Procedure: 96 well plates were coated with 10 μg/mL Protein A overnight, then blocked with 2% FBS for 1 hour. 2 μg/mL P-selectin/Fc chimera was bound to the Protein A for 3 hours at 4° C. HL-60 cells (2e5 cells/well, CMFDA labeled) were then layered onto the P-selectin and allowed to bind for 1 hour at room temperature. Wells were treated concurrently with test samples to determine inhibitory binding activity. After 1 hour, unbound cells were washed and bound cells lysed in a 1% Triton-X solution and read on a Fluorimeter at 480/520 nm.

Compound	reduction of tumor volume [1]	P-sel IC50 (P-selectin) [µg/mL]
Nc1ccn([C@@H]2O[C@H](CO)[C@@H](O)C2(F)F)c(=O)n1 [Gemcitabine, gemcitabine]	approximately 58%	
enoxaparin		64.72

From patent US20250360161A1, “CHEMICALLY MODIFIED HEPARIN” (IHP Therapeutics Inc., priority 2022, published 2025)
